Values of other authors in PMC4228152 (BMC Pulmonary Medicine, 2014).
Read-outs that look alike come from different tables or passages of the source.

Key:
monocytes = tested on: monocytes; parameters: method as in PMID 11865966; details: subjects after 4 weeks treatment
[1] = administered orally
[2] = tested on: allergen induced asthmatic response
[3] = inhaled inhibitor, read-out: IC50

IC50 (PDE4; average of three isoforms, read-out: IC50 average for PDE4-A, -B and -D) | IC50 (PDE4D) | IC50 (PDE4A) | IC50 (PDE4B) | mean Cmax [1] | IC50 (PDE4; [3]) | SMILES | inhibition of LPS-induced TNFα release in monocytes ex vivo (monocytes) | reduction in LAR AUC ([2]; oral) | inhibition of the maximal fall in the EAR ([2]; orally administered) | inhibition of the maximal fall in the LAR ([2]; orally administered) | fall in LAR ([2]; inhaled) | reduction in LAR ([2]; inhaled)
0.5 nM | […] | […] | […] | 2,000 pg/ml | – | O=C(Nc1c(Cl)cncc1Cl)c1ccc(OC(F)F)c(OCC2CC2)c1 [roflumilast] | 1.3 fold | 43% | 14-28% | 16-43% | – | –
– | – | – | – | – | 0.026 nM | CS(=O)(=O)Nc1ccc(C(=O)O[C@@H](Cc2c(Cl)c[n+]([O-])cc2Cl)c2ccc(OC(F)F)c(OCC3CC3)c2)cc1OCC1CC1 [CHF6001] | – | – | – | – | 30% | –
– | – | – | – | – | 0.0032 nM | COc1cccc(Nc2c(C(N)=O)cnc3c(C)cc(S(=O)(=O)c4cccc(C(=O)N(C)C)c4)cc23)c1 [GSK256066] | – | – | – | – | – | 34%
